Article PMC6134994, “Discovery of Potent Disheveled/Dvl Inhibitors Using Virtual Screening Optimized With NMR-Based Docking Performance Index” (Frontiers in Pharmacology, 2018)

How the values were obtained:
[1] = molecular target: T1, mZO1-PDZ1 (mouse ZO-1 first PDZ domain) (Mus musculus, UniProt P39447); experiment: NMR chemical shift perturbation (1H-15N HSQC)
T1 construct: gene Tjp1
T1 sequence (P39447 18-110): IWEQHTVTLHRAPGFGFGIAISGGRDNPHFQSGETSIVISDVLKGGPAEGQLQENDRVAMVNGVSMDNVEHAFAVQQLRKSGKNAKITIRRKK

[2] = molecular target: T2, hDvl1-PDZ (human Dvl1 PDZ domain) (Homo sapiens, UniProt O14640, C338A/W339T); experiment: NMR chemical shift perturbation at […] equivalents (averaged normalized shift); assay type: binding
T2 construct: PDZ domain, residues 246–340
T2 sequence (O14640 246-340 C338A/W339T): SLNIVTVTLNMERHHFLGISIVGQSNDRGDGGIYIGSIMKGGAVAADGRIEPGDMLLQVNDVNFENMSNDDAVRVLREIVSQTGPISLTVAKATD

Δδave/ppm [2] [ppm] | Structure (SMILES) | NMR chemical shift perturbation (1H-15N HSQC) [1]
 | O=C(Cc1ccccc1)Nc1cccc(C(=O)Nc2ccccc2C(=O)O)c1 [CalBioChem-322338] | residues surrounding the canonical binding site of mZO1-PDZ1 showed substantial CSP upon CalBioChem-322338
0.044 | CC(=O)C(=NNc1cccc(S(=O)(=O)Nc2ccccc2C(=O)O)c1)C(=O)c1ccccc1 [NPL-3009] | 
